Laboratory results from publication PMC8029583 (ACS chemical biology, 2020).
Where a SMILES comes first, the peptide text is derived from it.

Experiments:
ComR receptor [1] = target: T1, ComR receptor (Streptococcus mutans serotype c, UniProt Q8DWI6); test: β-galactosidase reporter inhibition; format: cell-based; settings: SMCOM2 in CDM; primary antagonism screening (Figure S-3)
ComR receptor [2] = target: T1, ComR receptor; test: β-galactosidase reporter activation; format: cell-based

With `CC(C)C[C@H](NC(=O)CN)C(=O)N[C@@H](CC(=O)O)C(=O)N[C@@H](Cc1c[nH]c2ccccc12)C(=O)N[C@@H](Cc1c[nH]c2ccccc12)C(=O)N[C@@H](CO)C(=O)N[C@@H](C)C(=O)O` [XIP-L7A (P8), GLDWWSA] (H-GLDWWSA-OH) the “inhibition of ComR activation” value (ComR receptor [1]) was ~ 80%.

GLD [XIP-Des-W4W5S6L7 (P43)] was tested, and the “activity / agonism against ComR (in words)” value (ComR receptor [2]; SMCOM2 reporter in CDM) was “inactive”.

With GLdWWSL [XIP-d3 (P10)] the activation (ComR receptor [2]; SMCOM2 in CDM, at 100 μM concentration) was ~ 45%.

In the case of `CC(C)C[C@H](NC(=O)[C@H](CO)NC(=O)[C@H](Cc1c[nH]c2ccccc12)NC(=O)[C@H](C)NC(=O)[C@H](CC(=O)O)NC(=O)[C@H](CC(C)C)NC(=O)CN)C(=O)O` [XIP-W4A (P5), GLDAWSL] (H-GLDAWSL-OH), the “inhibition of ComR activation” value (ComR receptor [1]) is reported as ~ 90%.

In the case of `CC(C)C[C@H](NC(=O)[C@H](C)NC(=O)[C@H](Cc1c[nH]c2ccccc12)NC(=O)[C@H](Cc1c[nH]c2ccccc12)NC(=O)[C@H](C)NC(=O)[C@H](CC(C)C)NC(=O)[C@H](C)N)C(=O)O` [XIP-G1AD3AS6A (P30), ALAWWAL] (H-ALAWWAL-OH), the “comX activation (partial agonist)” value (ComR receptor [2]; SMCOM2 in CDM, from dose response curve) is reported as ~ 30%.
